Usually MIC stands for the smallest concentration in the dilution series that meets the test's criterion for growth inhibition. Broadly, the IC90 is the point of the concentration-response curve where the effect stands at 90%.

The record followed here is US12421211B2, “Heterocyclic compounds” (Hoffmann-La Roche Inc., priority 2021, dated 2025).

Experiment [1] deals with Acinetobacter baumannii ATCC17978. The experiment in a line: Minimal Inhibitory Concentration (MIC) assay. Particulars: read-out: MIC AB. ATCC17978. The experiment is classed as cell-based. How it is done: Minimal Inhibitory Concentration Protocol (MIC) Assay:
Table 2 provides the in vitro potency of the compounds of present invention obtained against the strain Acinetobacter baumannii ATCC17978, which was assessed by an MIC (Minimal Inhibitory Concentration) assay as follows.
Test compounds were prepared from 10 mM DMSO stock solutions. The top dose was diluted from 10 mM to 2.5 mM by DMSO, followed by serial 2-fold 11 points dilutions in DMSO in a master plate (Greiner, Cat No: 651201). 2 μL compounds were transferred from the master plate into a new 96-well assay plate (Costar, 3599).
The growth medium […] Mueller Hinton Broth (CAMHIB) was prepared by adding 22 g powder (BD, 212322) in 1 L purified water, autoclaved, and supplemented with sterilized CaCl2 (20 mg per liter) and MgCl2 (10 mg per liter).
Vials of each of the test microorganisms were maintained frozen in the vapor phase of a liquid nitrogen freezer. Took out the bacterial strain ATCC 17978 from liquid nitrogen freezer, thawed it at room temperature, and diluted the bacterial in the CAMHB medium to achieve a final inoculum of 2×10^5 CFU/mL. 98 μL of the adjusted bacteria suspension was dispensed to the assay plate and pipetted 5 times.
Then the assay plates were incubated for 20 hours at 35±2° C. in ambient air with humidity. Following incubation, MIC […] value, the lowest concentration of drug that inhibits visible growth of the microorganism, was recorded by visual judgment of bacterial growth through magnification mirror of MIC reader, and the assay plates were photographed with Qcount system as image raw data. Meanwhile, the D600 of assay plates was recorded with SpectraMax Plus384 as GD raw data.

For experiment [2], the system named is Acinetobacter baumannii ATCC17961. The experiment in a line: Antimicrobial susceptibility testing: 90% growth inhibitory concentration (IC90) determination. To be noted: read-out: ATCC 17961 IC90. The experiment is classed as cell-based. The method, boiled down: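 Growth inhibition derived in log phase from OD600 kinetics (every 20 minutes, 16h, 35±2° C) of ATCC17961 in Iso-Sensitest medium, inoculum ~5×10^5 CFU/ml. Compounds tested as twofold series, 10 points (e.g. 50 to 0.097 μM final); IC90 and IC50 reported.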

[3] abbreviates: Acinetobacter baumannii ATCC17978, CAMHB medium, 20 hours at 35±2° C., visual reading.

Converted amounts (≈) assume the structure as drawn. Counter-ions that a name gives are not always drawn. Like-named read-outs stand apart in the source and are kept apart here.

As for `COCCn1nc(C)c(-c2ccc(-c3cnc(C(=O)Nc4ccc(C(=O)N5CCN(C(=O)C[N+]6(C)C[C@@H](N)[C@H](OC)C6)CC5)c(Cl)c4)n3C)c(F)c2F)c1C` (mixture of isomers) [Example C13, N-[4-[4-[2-[(3R,4R)-3-amino-4-methoxy-1-methyl-pyrrolidin-1-ium-1-yl]acetyl]piperazine-1-carbonyl]-3-chloro-phenyl]-5-[2,3-difluoro-4-[1-(2-methoxyethyl)-3,5-dimethyl-pyrazol-4-yl]phenyl]-1-methyl-imidazole-2-carboxamide; formic acid; formate], in experiment [1] (setting [3]), the MIC is 1.22 µM.
`COCCn1ncc(-c2ccc(-c3cnc(C(=O)Nc4ccc(C(=O)N5CCN(C(=O)C6CC[N+](C)(CCS(N)(=O)=O)CC6)CC5)c(Cl)c4)n3C)c(F)c2F)c1C` (stereo not shown) [Example B34, N-[3-chloro-4-[4-[1-methyl-1-(2-sulfamoylethyl)piperidin-1-ium-4-carbonyl]piperazine-1-carbonyl]phenyl]-5-[2,3-difluoro-4-[1-(2-methoxyethyl)-5-methyl-pyrazol-4-yl]phenyl]-1-methyl-imidazole-2-carboxamide; formate]: in experiment [1] (Acinetobacter baumannii, ATCC17978, 20 h), the MIC was 0.65 µM.
In the case of `Cc1n[nH]cc1-c1ccc(-c2cnc(C(=O)Nc3ccc(C(=O)N4CCN(C(=O)[C@@H]5C[C@@H](O)C[N+]5(C)C)CC4)c(Cl)c3)n2C)c(F)c1F` [Example D19, N-[3-chloro-4-[4-[(2S,4R)-4-hydroxy-1,1-dimethyl-pyrrolidin-1-ium-2-carbonyl]piperazine-1-carbonyl]phenyl]-5-[2,3-difluoro-4-(3-methyl-1H-pyrazol-4-yl)phenyl]-1-methyl-imidazole-2-carboxamide; formate], the MIC in experiment [1] (setting [3]) was found to be 1.07 µM.
`Cc1c(-c2ccc(-c3cnc(C(=O)Nc4ccc(C(=O)N5CCN(C(=O)C6CCNCC6)CC5)c(Cl)c4)n3C)c(F)c2F)cnn1CC(F)F` [Example E1, N-[3-chloro-4-[4-(piperidine-4-carbonyl)piperazine-1-carbonyl]phenyl]-5-[4-[1-(2,2-difluoroethyl)-5-methyl-pyrazol-4-yl]-2,3-difluoro-phenyl]-1-methyl-imidazole-2-carboxamide]: in experiment [1] (setting [3]), the minimum inhibitory concentration (MIC) is 0.56 µM (≈ 0.4 µg/mL).
On the same count and under the same terms, for `COCCn1ncc(-c2ccc(-c3cnc(C(=O)Nc4ccc(C(=O)N5CCN(C(=O)C6CCNCC6)CC5)c(Cl)c4)n3C)c(Cl)c2F)c1C` [Example E4, 5-[2-chloro-3-fluoro-4-[1-(2-methoxyethyl)-5-methyl-pyrazol-4-yl]phenyl]-N-[3-chloro-4-[4-(piperidine-4-carbonyl)piperazine-1-carbonyl]phenyl]-1-methyl-imidazole-2-carboxamide; formic acid] the value was 0.57 µM (≈ 0.414 µg/mL).
Consider `COCCn1cc(-c2ccc(-c3cnc(C(=O)Nc4ccc(C(=O)N5CCN(C(=O)[C@H]6CC[N@+](CC(=O)O)(CC7CNC7)CC6)CC5)c(Cl)c4)n3C)c(F)c2F)c(C)n1` [Example Q4, cis 2-[1-(azetidin-3-ylmethyl)-4-[4-[2-chloro-4-[[5-[2,3-difluoro-4-[1-(2-methoxyethyl)-3-methyl-pyrazol-4-yl]phenyl]-1-methyl-imidazole-2-carbonyl]amino]benzoyl]piperazine-1-carbonyl]piperidin-1-ium-1-yl]acetic acid formate;], for which, in experiment [2] (Acinetobacter baumannii, ATCC17961, 16 h), the IC90 stood at 195 nM.
In the case of “cis 2-[1-(azetidin-3-ylmethyl)-4-[4-[2-chloro-4-[[5-[3-fluoro-4-[1-(2-methoxyethyl)-3-methyl-pyrazol-4-yl]phenyl]-1-methyl-imidazole-2-carbonyl]amino]benzoyl]piperazine-1-carbonyl]piperidin-1-ium-1-yl]acetic acid; 2,2,2-trifluoroacetate [Example O7]”, the IC90 in experiment [2] (90% growth inhibitory concentration, Acinetobacter baumannii ATCC17961, Iso-Sensitest broth, OD 600 nm over 16 h) came to 140 nM.
